Data as given in patent US20070049564A1 (Wyeth, priority 2005, published 2007).
Values after ≈ are worked out from the molar mass of the structure shown. Where two headings read alike, the source gives them in different places.

How the values were obtained:
E. coli GC 2231 = experiment: MIC, broth microdilution; settings: Escherichia coli, GC2231, E. coli GC 2231
E. coli GC 2236 = experiment: MIC, broth microdilution; settings: Escherichia coli, GC2236, E. coli GC 2236
E. coli GC 2232 = experiment: MIC, broth microdilution; settings: Escherichia coli, GC2232, E. coli GC 2232
S. pneumoniae* GC 4465 = experiment: MIC, broth microdilution; settings: Streptococcus pneumoniae, S. pneumoniae* GC 4465
E. coli = experiment: Range of MIC for E. coli strains; settings: Escherichia coli
E. coli GC 2234 = experiment: MIC, broth microdilution; settings: Escherichia coli, GC2234, E. coli GC 2234
S. typhimurium GC 2172 = experiment: MIC, broth microdilution; settings: Salmonella enterica, TYPHIMURIUM, S. typhimurium GC 2172
S. pyogenes GC 4563 = experiment: MIC, broth microdilution; settings: Streptococcus pyogenes, GC4563, S. pyogenes GC 4563
S. aureus GC 6466 = experiment: MIC, broth microdilution; settings: Staphylococcus aureus, GC6466, S. aureus GC 6466
Staph. aureus Smith = experiment: In vivo activity (oral, iv; ED50) against Staph. aureus Smith in mice
Method: Representative examples of compounds of Formula I were tested for the oral efficacy using S. aureus Smith in mice.

E. coli GC 4559 = experiment: MIC, broth microdilution; settings: Escherichia coli, GC4559, E. coli GC 4559
E. faecium GC 4556 = experiment: MIC, broth microdilution; settings: Enterococcus faecium, GC4556, E. faecium GC 4556
Staph. = experiment: Range of MIC for Staph. strains, including MRSA; settings: Staphylococcus aureus, MRSA
E. faecalis GC 2242 = experiment: MIC, broth microdilution; settings: Enterococcus faecalis, GC2242, E. faecalis GC 2242
S. agalactiae GC 4564 = experiment: MIC, broth microdilution; settings: Streptococcus agalactiae, GC4564, S. agalactiae GC 4564
S. aureus GC 2216 = experiment: MIC, broth microdilution; settings: Staphylococcus aureus, GC2216, S. aureus GC 2216
S. aureus GC 4536 = experiment: MIC, broth microdilution; settings: Staphylococcus aureus, GC4536, S. aureus GC 4536
E. coli GC 2235 = experiment: MIC, broth microdilution; settings: Escherichia coli, GC2235, E. coli GC 2235
S. pneumoniae+ GC 4465 = experiment: MIC, broth microdilution; settings: Streptococcus pneumoniae, S. pneumoniae+ GC 4465
E. faecalis GC 4555 = experiment: MIC, broth microdilution; settings: Enterococcus faecalis, GC4555, E. faecalis GC 4555
[1] = 20 h, read-out: Range of MIC, E. coli (Mouse Serum)
[2] = read-out: Range of MIC, E. coli (mouse serum)
[3] = Staphylococcus aureus, in Mus musculus, po, read-out: ED50 Staph Smith SOD
[4] = iv, read-out: ED50 Staph Smith SIV
[5] = read-out: Range of MIC, Staph (Mouse Serum)
[6] = read-out: Range of MIC, Staph (Water)
[7] = read-out: Range of MIC, Staph. (mouse serum)
[8] = read-out: Range of MIC, Staph. (water)

In the case of `CCCN(CC(=O)Nc1cc(N(C)C)c2c(c1O)C(=O)C1=C(O)[C@]3(O)C(=O)C(C(N)=O)=C(O)[C@@H](N(C)C)[C@@H]3C[C@@H]1C2)C(=O)OCOC(=O)c1ccc(F)cc1` [Example 8, ({[(2-{[(5aR,6aS,7S,10aS)-9-(aminocarbonyl)-4,7-bis(dimethylamino)-1,8,10a,11-tetrahydroxy-10,12-dioxo-5,5a,6,6a,7,10,10a,12-octahydrotetracen-2-yl]amino}-2-oxoethyl)(propyl)amino]carbonyl}oxy)methyl 4-fluorobenzoate], the MIC (E. coli GC 2231; Mouse Serum pre-incubation) is reported as 2 µg/mL (≈ 2.6 µM), the MIC (E. coli GC 2231; Water pre-incubation) is reported as greater than 64 µg/mL and the MIC (E. coli GC 2236; Mouse Serum pre-incubation) is reported as 1 µg/mL (≈ 1.3 µM). The MIC (E. coli GC 2236; Water pre-incubation) was 32 µg/mL (≈ 41.7 µM), the MIC (E. coli GC 2232; Mouse Serum pre-incubation) was 1 µg/mL (≈ 1.3 µM) and the MIC (E. coli GC 2232; Water pre-incubation) was 32 µg/mL (≈ 41.7 µM). For the same molecule, the MIC (S. pneumoniae* GC 4465; Mouse Serum pre-incubation) was less than 0.06 µg/mL, the MIC (S. pneumoniae* GC 4465; Water pre-incubation) was 0.25 µg/mL (≈ 0.326 µM) and the MIC (E. coli; [1]) was 1 to 2 µg/mL (≈ 1.3 to 2.6 µM). For the same molecule, the MIC (E. coli; [2]) was 1 to 2 µg/mL (≈ 1.3 to 2.6 µM), the MIC (E. coli GC 2234; Mouse Serum pre-incubation) was 1 µg/mL (≈ 1.3 µM) and the MIC (E. coli GC 2234; Water pre-incubation) was 32 µg/mL (≈ 41.7 µM). It also gave an MIC (S. typhimurium GC 2172; Mouse Serum pre-incubation) of 8 µg/mL (≈ 10.4 µM), an MIC (S. typhimurium GC 2172; Water pre-incubation) greater than 64 µg/mL and an MIC (S. pyogenes GC 4563; Mouse Serum pre-incubation) of 0.12 µg/mL (≈ 0.156 µM). For the same molecule, the MIC (S. pyogenes GC 4563; Water pre-incubation) was 0.5 µg/mL (≈ 0.651 µM), the MIC (S. aureus GC 6466; Mouse Serum pre-incubation) was 0.5 µg/mL (≈ 0.651 µM) and the MIC (S. aureus GC 6466; Water pre-incubation) was 1 µg/mL (≈ 1.3 µM). It also gave an ED50 (Staph. aureus Smith; [3]) of 16.6 mg/kg, an ED50 (Staph. aureus Smith; [4]) of 0.48 mg/kg and an MIC (E. coli GC 4559; Mouse Serum pre-incubation) of 1 µg/mL (≈ 1.3 µM). It also gave an MIC (E. coli GC 4559; Water pre-incubation) of 64 µg/mL (≈ 83.4 µM), an MIC (E. faecium GC 4556; Mouse Serum pre-incubation) of 1 µg/mL (≈ 1.3 µM) and an MIC (E. faecium GC 4556; Water pre-incubation) of 4 µg/mL (≈ 5.21 µM). The MIC (Staph.; [5]) was 0.5 to 4 µg/mL (≈ 0.651 to 5.21 µM), the MIC (Staph.; [6]) was 1 to 8 µg/mL (≈ 1.3 to 10.4 µM) and the MIC (Staph.; [7]) was 0.5 to 4 µg/mL (≈ 0.651 to 5.21 µM). The MIC (Staph.; [8]) was 1 to 8 µg/mL (≈ 1.3 to 10.4 µM), the MIC (E. faecalis GC 2242; Mouse Serum pre-incubation) was 1 µg/mL (≈ 1.3 µM) and the MIC (E. faecalis GC 2242; Water pre-incubation) was 4 µg/mL (≈ 5.21 µM). The MIC (S. agalactiae GC 4564; Mouse Serum pre-incubation) was 0.25 µg/mL (≈ 0.326 µM), the MIC (S. agalactiae GC 4564; Water pre-incubation) was 0.5 µg/mL (≈ 0.651 µM) and the MIC (S. aureus GC 2216; Mouse Serum pre-incubation) was 0.5 µg/mL (≈ 0.651 µM). For the same molecule, the MIC (S. aureus GC 2216; Water pre-incubation) was 4 µg/mL (≈ 5.21 µM), the MIC (S. aureus GC 4536; Mouse Serum pre-incubation) was 0.5 µg/mL (≈ 0.651 µM) and the MIC (S. aureus GC 4536; Water pre-incubation) was 2 µg/mL (≈ 2.6 µM). The MIC (E. coli GC 2235; Mouse Serum pre-incubation) was 1 µg/mL (≈ 1.3 µM), the MIC (E. coli GC 2235; Water pre-incubation) was 16 µg/mL (≈ 20.8 µM) and the MIC (S. pneumoniae+ GC 4465; Mouse Serum pre-incubation) was 1 µg/mL (≈ 1.3 µM). For the same molecule, the MIC (S. pneumoniae+ GC 4465; Water pre-incubation) was 4 µg/mL (≈ 5.21 µM), the MIC (E. faecalis GC 4555; Mouse Serum pre-incubation) was 0.5 µg/mL (≈ 0.651 µM) and the MIC (E. faecalis GC 4555; Water pre-incubation) was 8 µg/mL (≈ 10.4 µM).
For `CCCN(CC(=O)Nc1cc(N(C)C)c2c(c1O)C(=O)C1=C(O)[C@]3(O)C(=O)C(C(N)=O)=C(O)[C@@H](N(C)C)[C@@H]3C[C@@H]1C2)C(=O)OCOC(=O)C(C)C` [Example 10, ({[(2-{[(5aR,6aS,7S,10aS)-9-(aminocarbonyl)-4,7-bis(dimethylamino)-1,8,10a,11-tetrahydroxy-10,12-dioxo-5,5a,6,6a,7,10,10a,12-octahydrotetracen-2-yl]amino}-2-oxoethyl)(propyl)amino]carbonyl}oxy)methyl 2-methylpropanoate], the MIC (E. coli GC 2231; Mouse Serum pre-incubation) was 2 µg/mL (≈ 2.79 µM), the MIC (E. coli GC 2231; Water pre-incubation) was 32 µg/mL (≈ 44.7 µM) and the MIC (E. coli GC 2236; Mouse Serum pre-incubation) was 0.5 µg/mL (≈ 0.699 µM). The MIC (E. coli GC 2236; Water pre-incubation) was 8 µg/mL (≈ 11.2 µM), the MIC (E. coli GC 2232; Mouse Serum pre-incubation) was 0.5 µg/mL (≈ 0.699 µM) and the MIC (E. coli GC 2232; Water pre-incubation) was 8 µg/mL (≈ 11.2 µM). It also gave an MIC (S. pneumoniae* GC 4465; Mouse Serum pre-incubation) of less than 0.06 µg/mL, an MIC (S. pneumoniae* GC 4465; Water pre-incubation) of less than 0.06 µg/mL and an MIC (E. coli; [1]) of 0.25 to 2 µg/mL (≈ 0.349 to 2.79 µM). It also gave an MIC (E. coli; read-out: Range of MIC, E. coli (Water)) of 4 to 32 µg/mL (≈ 5.59 to 44.7 µM), an MIC (E. coli; [2]) of 0.25 to 2 µg/mL (≈ 0.349 to 2.79 µM) and an MIC (E. coli; read-out: Range of MIC, E. coli (water)) of 4 to 32 µg/mL (≈ 5.59 to 44.7 µM). For the same molecule, the MIC (E. coli GC 2234; Mouse Serum pre-incubation) was 0.5 µg/mL (≈ 0.699 µM), the MIC (E. coli GC 2234; Water pre-incubation) was 8 µg/mL (≈ 11.2 µM) and the MIC (S. typhimurium GC 2172; Mouse Serum pre-incubation) was 4 µg/mL (≈ 5.59 µM). The MIC (S. typhimurium GC 2172; Water pre-incubation) was greater than 64 µg/mL, the MIC (S. pyogenes GC 4563; Mouse Serum pre-incubation) was less than 0.06 µg/mL and the MIC (S. pyogenes GC 4563; Water pre-incubation) was less than 0.06 µg/mL. The MIC (S. aureus GC 6466; Mouse Serum pre-incubation) was 0.12 µg/mL (≈ 0.168 µM), the MIC (S. aureus GC 6466; Water pre-incubation) was 0.12 µg/mL (≈ 0.168 µM) and the ED50 (Staph. aureus Smith; [3]) was 13.6 mg/kg. The ED50 (Staph. aureus Smith; [4]) was 0.36 mg/kg, the MIC (E. coli GC 4559; Mouse Serum pre-incubation) was 0.5 µg/mL (≈ 0.699 µM) and the MIC (E. coli GC 4559; Water pre-incubation) was 16 µg/mL (≈ 22.4 µM). It also gave an MIC (E. faecium GC 4556; Mouse Serum pre-incubation) of 0.25 µg/mL (≈ 0.349 µM), an MIC (E. faecium GC 4556; Water pre-incubation) of 0.5 µg/mL (≈ 0.699 µM) and an MIC (Staph.; [5]) of 0.25 to 2 µg/mL (≈ 0.349 to 2.79 µM). For the same molecule, the MIC (Staph.; [6]) was 0.12 to 2 µg/mL (≈ 0.168 to 2.79 µM), the MIC (Staph.; [7]) was 0.25 to 2 µg/mL (≈ 0.349 to 2.79 µM) and the MIC (Staph.; [8]) was 0.12 to 2 µg/mL (≈ 0.168 to 2.79 µM). It also gave an MIC (E. faecalis GC 2242; Mouse Serum pre-incubation) of 0.25 µg/mL (≈ 0.349 µM), an MIC (E. faecalis GC 2242; Water pre-incubation) of 0.5 µg/mL (≈ 0.699 µM) and an MIC (S. agalactiae GC 4564; Mouse Serum pre-incubation) of less than 0.06 µg/mL. The MIC (S. agalactiae GC 4564; Water pre-incubation) was 0.12 µg/mL (≈ 0.168 µM), the MIC (S. aureus GC 2216; Mouse Serum pre-incubation) was 0.25 µg/mL (≈ 0.349 µM) and the MIC (S. aureus GC 2216; Water pre-incubation) was 0.5 µg/mL (≈ 0.699 µM). It also gave an MIC (S. aureus GC 4536; Mouse Serum pre-incubation) of 0.25 µg/mL (≈ 0.349 µM), an MIC (S. aureus GC 4536; Water pre-incubation) of 0.5 µg/mL (≈ 0.699 µM) and an MIC (E. coli GC 2235; Mouse Serum pre-incubation) of 0.25 µg/mL (≈ 0.349 µM). For the same molecule, the MIC (E. coli GC 2235; Water pre-incubation) was 4 µg/mL (≈ 5.59 µM), the MIC (S. pneumoniae+ GC 4465; Mouse Serum pre-incubation) was 1 µg/mL (≈ 1.4 µM) and the MIC (S. pneumoniae+ GC 4465; Water pre-incubation) was 1 µg/mL (≈ 1.4 µM). The MIC (E. faecalis GC 4555; Mouse Serum pre-incubation) was 0.5 µg/mL (≈ 0.699 µM) and the MIC (E. faecalis GC 4555; Water pre-incubation) was 1 µg/mL (≈ 1.4 µM).
